From US20210060138A1 (priority 2019, published 2021) come the findings set out here.

In brackets after ≈: the same amount, converted by molar mass.

In one assay the test system is HIV-1NL4-3-GFP-P2A-Nef. Kind of assay: ART and LASER ART drug cocktails at 5×EC90 in HIV-1 infected Jurkat T cell line. The following applies: Human immunodeficiency virus 1, Jurkat, read-out: 5×EC90 values. It counts as cell-based. As to the method: FIGS. 6A-6C show the combined effect of ART and CRISPR/Cas9 on HIV-1 infection of Jurkat T cell line. FIG. 6A: Experimental design and procedure. Jurkat cells were infected with HIV-1NL4-3-GFP-P2A-Nef at multiplicity of infection (MOI) 0.001 and 0.01. […] At day 6 of infection the drugs were removed to allow efficient lentiviral transduction of Cas9 and gRNAs LTR A and LTR B which was conducted at day 7. At day 8 antiretrovirals were added back and continued for another 4 days. Twelve days after HIV-1 infection cells were collected, genomic DNA was extracted and analyzed by PCR for CRISPR-Cas9 mediated cleavage of viral LTR sequences. FIG. 6B: Quantification of the level of infection at day 7. Cells were fixed with 2% PFA and FACS analysis was performed to measure GFP expressing population for HIV infection/replication in vitro. FIG. 6C: Similar to FIG. 6B with exception that cells were treated with modified ART.
In vitro Infection: HEK-293T cells were transfected using CaPO4 precipitation method in the presence of chloroquine (50 μM) with 30 μg of pNL4-3-EGFP-P2A-Nef plasmid (13)/2.5×10^6 cells/100 mm dish. Next day, medium was replaced; and 24 h and 48 h later supernatants were collected, clarified at 3000 RPM for 10 minutes, filtered through 0.45 um filter, and concentrated by ultracentrifugation for 2 h with 20% sucrose cushion (25). Viral pellets were resuspended in HBSS by gentle agitation overnight, aliquoted, and tittered in Jurkat cells by FACS for GFP expression. Jurkat cells were infected by spinoculation for 1.5 h (26), 32° C. in 500 μl inoculum containing 8 μg/ml polybrene then resuspended and left for 4 h then 500 μl of growth medium was added. Next day, cells were washed 3 times with PBS and re-suspended in growth medium.
Broadly, the EC90 is the concentration needed for an effect of 90%. On to `Cc1cc(/C=C/C#N)cc(C)c1Nc1ccnc(Nc2ccc(C#N)cc2)n1` [RPV, rilpivirine], for which the EC90 was determined as 0.0033 µg/mL (≈ 0.00901 µM). Same read-out and setting: the figure for `C[C@@H]1CCO[C@H]2Cn3cc(C(=O)NCc4ccc(F)cc4F)c(=O)c(O)c3C(=O)N12` [DTG, dolutegravir] is 0.0111 µg/mL (≈ 0.0265 µM); for `Nc1ccn([C@@H]2CS[C@H](CO)O2)c(=O)n1` [3TC, lamivudine] it is 17.2 µg/mL (≈ 75 µM); for `Nc1nc(NC2CC2)c2ncn([C@H]3C=C[C@@H](CO)C3)c2n1` [ABC, abacavir] it is 8.3 µg/mL (≈ 29 µM).

Staying with this assay, now noted: concentration used in the cocktail, equal to 5×EC90.
For `CCCCCCCCCCCCCC(=O)OCC1OC(n2ccc(N)nc2=O)CS1` (stereo not shown) [M3TC, myristoylated lamivudine], the “5×EC90 values” is 32.9 µg/mL. Turning to `CCCCCCCCCCCCCC(=O)Oc1c2n(cc(C(=O)NCc3ccc(F)cc3F)c1=O)C[C@@H]1OCC[C@@H](C)N1C2=O` [MDTG, myristoylated dolutegravir], the “5×EC90 values” was found to be 0.0167 µg/mL. On the same count and under the same terms, next, `CCCCCCCCCCCCCC(=O)OCC1C=CC(n2cnc3c(NC4CC4)nc(N)nc32)C1` (stereo not shown) [MABC, myristoylated abacavir]: 14.4 µg/mL.
